{"source": "patent US7160894B2", "about": "“Tricyclic compound” (Asahi Kasei Pharma Corporation, priority 2003, dated 2007)", "key": {"[1]": {"test_system": "thoracic aorta constricted with phenylephrine", "experiment": "Vasoconstriction inhibitory action (Test Example 2)", "parameters": "species or system Rats (Wistar)", "settings": "test compound 1 μM; rat thoracic aorta constricted with phenylephrine 1 μM", "from_the_text": "Rats (Wistar, 11-week old) were bleeded to death and laparotomized to take out the thoracic aorta. That aorta was cut into a ring of a length of about 3 mm in a conventional manner (Asano, T., et al., J. Pharmacol. Exp. Ther., 241, pp. 1033–1040 (1987)) and hung in 10-ml organ bath filled with Krebs-Hensright nutrient solution bubbled with a mixed gas of 95% O2 and 5% CO2. One end of the blood vessel was connected to an isometric transducer (FD Pickup TB-912T, Nihon Kohden) and applied with 2.5 g of resting tension, and constriction and relaxation reactions of the aorta were recorded.\nThe aorta was constricted with phenylephrine (1 μM, Sigma) and then added with a test compound (1 μM), and the vasoconstriction inhibitory action thereof was observed. The vasoconstriction inhibitory actions of the test compounds were calculated as relaxation ratios, which were based on the vasoconstriction with phenylephrine observed immediately before the addition of the test compounds taken as 100%."}, "intraocular pressure": {"test_system": "intraocular pressure", "experiment": "Intraocular pressure reducing action (Test Example 4)", "format": "in vivo, Japanese white rabbit", "settings": "rabbit, 50 μl of aqueous solution dropped to the left eye", "method": "A Japanese white rabbit having a body weight of about 2 kg was placed in a positioner and naturalized for one week before the experiment. An ophthalmologic local anesthesant (Benoxil) was administered to the left eye, and then intraocular pressure was measured by using a tonometer (Classic 30, Solan). The initial value of the intraocular pressure was measured, then 50 μl of an aqueous solution of a test compound was dropped to the left eye at various concentrations, and the intraocular pressure was measured with passage of time."}, "[2]": {"test_system": "cerebral hippocampal neurons", "experiment": "Neurite outgrowth action (Test Example 5)", "format": "cell-based, Sprague-Dawley rats", "settings": "rat hippocampal neurons, 24 hours after addition", "method": "From 18 day-old Sprague-Dawley rats, cerebral hippocampal neurons were prepared according to the method of Neuman et al. (Neuman, H. R. et al., J. Neurosci., 22, pp. 854–862, 2002). The prepared neurons were cultured for 24 hours according to the method of Tanaka et al. (Tanaka, H. et al., J. Cell Biol., 158 (2), pp. 321–329, 2002), then the medium was exchanged with fresh medium, and test medicaments of various concentrations or equivalent amounts of vehicle were added. Twenty-four hours after the addition of the medicaments, neurite length of each neuron was measured for the medicament-added group and the no-addition group, and compared. The neurite length was evaluated according to the method of Neuman et al. (Neuman, H. R. et al., J. Neurosci., 22, pp. 854–862, 2002)."}, "[3]": {"test_system": "lipopolysaccharide-induced pulmonary inflammation", "experiment": "Pulmonary inflammation suppressing action, LPS-induced (Test Example 8)", "format": "in vivo, BALB/c female mice", "settings": "mice, LPS inhalation, test compound by inhalation over 10 minutes, 3 hours after administration", "from_the_text": "According to Gonzales de Moraes, V L., et al., Br. J. Pharmacol., 123, pp. 631–6, 1998, suppressing action on pulmonary inflammation was studied. BALB/c female mice (7-week old) were used for the test, as the compound administration group and positive control group, each consisting of 7 mice, as well as the negative control group consisting of 5 mice. For induction of inflammation, a 0.03% physiological saline solution of a lipopolysaccharide (LPS, a mixture derived from Escherichia coli O55 and B5 strains, Sigma) was used. A test compound was dissolved in physiological saline to prepare solutions of various concentrations. The test animals were first inhaled with the aforementioned lipopolysaccharide solution for 10 minutes by using a pressurization type nebulizer (PARI-IS2) to induce inflammation. Then, 1 minute after the completion of the inhalation of the lipopolysaccharide solution, the animals were administered with a solution of test compound at various concentrations over 10 minutes by inhalation using the aforementioned nebulizer. The mice of the positive control group were administered with the same volume of physiological saline instead of the test compound solution over 10 minutes by inhalation. Three hours after the administration of the test compound, pulmonary cavities of the test animals were washed with physiological saline, and the total infiltrated leucocyte (WBC) number was counted."}, "[4]": {"test_system": "phosphorylated myosin regulatory light chain in neutrophils", "experiment": "Action on amount of phosphorylated myosin regulatory light chain in the cells (Test Example 1)", "format": "cell-based", "settings": "Neutrophil, 5 min; human neutrophils, reaction at 25° C. for 5 minutes; read-out: concentration at which the phosphorylation of myosin regulatory light chain is inhibited (IC50)", "method": "A volume of 50 to 100 ml of peripheral blood collected from healthy volunteers was centrifuged by using Mono-Poly separator solution (Dainippon Pharmaceutical) to prepare a neutrophil containing fraction. The neutrophils were washed with PBS(−) and resuspended in Hanks' Balanced Salt Solution (HBSS+, Gibco) to prepare a cell suspension (8×10^6/ml). The cell suspension was diluted to 5×10^6/ml, introduced into Eppendorf tubes in a volume of 0.4 ml each, then 0.1 ml each of solutions of a test compound at various concentrations were added to the suspension and allowed to react at 25° C. for 5 minutes. After the reaction, 0.1 ml of trichloroacetic acid solution was added to each reaction, the reaction mixture was gently shaken and centrifuged at 12,000 rpm (4° C., 5 minutes), and the supernatant was removed. Subsequently, 3 μl of 1 M Tris solution was added to the residue, the mixture was further mixed with 50 μl of extraction buffer (8 M urea, 0.02% 2-mercaptoethanol, 0.002% bromophenol blue) and left stand at room temperature for 1 hour. Then, the reaction mixture was loaded on a spin column (0.45 μm, Millipore) to remove the insoluble solids and a sample buffer for SDS polyacrylamide gel electrophoresis (25 mM, Tris-HCl pH 6.8, 2.5% 2-mercaptoethanol, 2% sodium dodecylsulfate, 5% sucrose, 0.002% bromophenol blue as final concentrations) was added, and 10 μl of each sample was subjected to electrophoresis.\nThe gel after the electrophoresis was blotted on a nitrocellulose membrane (BioRad), blocked with 5% skim milk, and reacted successively with antibodies pLC1 (Sakurada K. et al, Am. J. Physiol., 274, C1563–C1572 (1998)), which specifically recognize the phosphorylated myosin regulatory light chain, and donkey anti-mouse IgG (Chemicon) conjugated with horseradish peroxidase. The band of the phosphorylated myosin regulatory light chain was detected on a film by using ECL Plus Kit (Amersham Pharmacia Biotech). This band was subjected to quantification using a densitometer. By using this value, the inhibitory ratio (%) for phosphorylation of the myosin regulatory light chain was calculated by using the following equation. Phosphorylation inhibition ratio (%)=1−(Band intensity of phosphorylated myosin regulatory light chain with addition of the test compound/Band intensity of phosphorylated myosin regulatory light chain without addition of the test compound)×100\nFurther, the phosphorylation inhibition ratio was calculated with changing the concentrations of the test compound, and a compound concentration providing an inhibition ratio of 50% was obtained as IC50."}, "neutrophils": {"test_system": "neutrophils", "experiment": "Neutrophil migration inhibitory action, Boyden Chamber, FMLP (Test Example 6)", "format": "cell-based", "settings": "0.5 h, human neutrophils, FMLP 1 μM, 37° C., 30 minutes, read-out: concentration at which the migration of neutrophils is inhibited (IC50)", "method": "Neutrophils were isolated from 50 to 100 ml of peripheral blood collected from healthy human donors by the method described in Test Example 1 to obtain a cell suspension (8×10^6/ml). Subsequently, solutions of a test compound at various concentrations were introduced into wells of a 96-well plate in a volume of 125 μl per well, the cell suspension of an equivalent volume was added to it and the plate was preincubated at room temperature for 5 minutes. During the preincubation, FMLP (1 μM, Sigma) solution was added to the lower chamber to set Boyden Chamber, the preincubated cell suspension was added to the upper chamber in a volume of 200 μl per well, and the cells were allowed to migrate at 37° C. under 5% carbon dioxide for 30 minutes. The filter after the migration was collected, and the non-migrated cells adhered to the surface that faced the upper chamber were carefully wiped off. Then, the migrated cells on the back surface were stained with DifQuick dye solution (International Reagents), washed with water and dried, and then absorbance was measured at 595 nm. The inhibition ratio against migration (%) of a test compound was calculated by using the following equation: Migration inhibition ratio (%)=(1−Absorbance of the group with addition of test compound/Absorbance of the group without addition of test compound)×100\nFurther, the migration inhibitory ratio was calculated with changing the test compound concentration, and a compound concentration providing an inhibition ratio of 50% was obtained as IC50. The compounds of the present invention obtained in Examples 1, 11, 12, 13, 14, 15, 16, 18, 19, 20, 21, 22, 24, 31, 41, 42, 47, 52, 53, 54, 55, 56, 57, 58, 59, 60, 62, 63, 64, 65, 66, 67, 68, 72, 73, 74, 75, 76, 77, 78, 79, 80, 81, 82, 83, 84, 87, 88, 89, 90, and 91 inhibited the migration of neutrophils at a concentration of 40 μM or less, and further, the compounds of Examples 1, 11, 12, 13, 14, 15, 19, 21, 22, 24, 31, and 41 inhibited the migration of neutrophils at a concentration of 10 μM or less. Further, trans-benzyl-[4-(2,3-dihydro-1,5-diazaphenalen-1-yl)cyclohexyl]amine inhibited the migration of neutrophils at a concentration of 40 μM or less."}}, "note": "pIC50: −log10 of the molar value.", "data": [{"smiles": "Cl.O=C(O)CCN1CCC(N2CCc3cncc4cccc2c34)CC1", "note": "[Example 16]", "values": [{"measurement": "vasoconstriction inhibitory action (relaxation ratio)", "setting": "[1]", "result": "significant vasoconstriction inhibitory action"}, {"measurement": "intraocular pressure reducing action", "setting": "intraocular pressure", "result": "significant intraocular pressure reducing action"}, {"measurement": "neurite outgrowth (neurite length)", "setting": "[2]", "result": "significant neurite outgrowth axis extension"}]}, {"smiles": "COCCN1CCC(N2CCc3cncc4cccc2c34)CC1.Cl", "note": "[Example 19]", "values": [{"measurement": "vasoconstriction inhibitory action (relaxation ratio)", "setting": "[1]", "result": "significant vasoconstriction inhibitory action"}, {"measurement": "intraocular pressure reducing action", "setting": "intraocular pressure", "result": "significant intraocular pressure reducing action"}, {"measurement": "neurite outgrowth (neurite length)", "setting": "[2]", "result": "significant neurite outgrowth axis extension"}, {"measurement": "pulmonary inflammation, total infiltrated leucocyte (WBC) number", "setting": "[3]", "result": "significantly improved the pathological condition"}]}, {"smiles": "CN[C@H]1CC[C@H](N2CCc3cncc4cccc2c34)CC1.Cl", "note": "[Example 41]", "values": [{"measurement": "vasoconstriction inhibitory action (relaxation ratio)", "setting": "[1]", "result": "significant vasoconstriction inhibitory action"}, {"measurement": "intraocular pressure reducing action", "setting": "intraocular pressure", "result": "significant intraocular pressure reducing action"}, {"measurement": "neurite outgrowth (neurite length)", "setting": "[2]", "result": "significant neurite outgrowth axis extension"}, {"measurement": "pulmonary inflammation, total infiltrated leucocyte (WBC) number", "setting": "[3]", "result": "significantly improved the pathological condition"}]}, {"smiles": "CC(=O)NCCN1CCC(N2CCc3cncc4cccc2c34)CC1", "note": "[Example 42]", "values": [{"measurement": "pIC50", "setting": "[4]", "result": "≥ 4.40"}, {"measurement": "intraocular pressure reducing action", "setting": "intraocular pressure", "result": "significant intraocular pressure reducing action"}, {"measurement": "pIC50", "setting": "neutrophils", "result": "≥ 4.40"}]}, {"smiles": "CN(C)[C@H]1CC[C@H](N2CCc3cncc4cccc2c34)CC1", "note": "[Example 53, trans-[4-(2,3-dihydro-1,5-diazaphenalen-1-yl)cyclohexyl]dimethylamine]", "values": [{"measurement": "pIC50", "setting": "[4]", "result": "≥ 4.40"}, {"measurement": "intraocular pressure reducing action", "setting": "intraocular pressure", "result": "significant intraocular pressure reducing action"}, {"measurement": "pIC50", "setting": "neutrophils", "result": "≥ 4.40"}]}, {"smiles": "FC1CNCCC1N1CCc2cncc3cccc1c23", "note": "(stereo not shown) [Example 54, 1-(3-fluoropiperidin-4-yl)-2,3-dihydro-1H-1,5-diazaphenalene]", "values": [{"measurement": "pIC50", "setting": "[4]", "result": "≥ 4.40"}, {"measurement": "intraocular pressure reducing action", "setting": "intraocular pressure", "result": "significant intraocular pressure reducing action"}, {"measurement": "pIC50", "setting": "neutrophils", "result": "≥ 4.40"}]}, {"smiles": "CC(=O)N(C)CCN1CCC(N2CCc3cncc4cccc2c34)CC1", "note": "[Example 59, N-{2-[4-(2,3-dihydro-1,5-diazaphenalen-1-yl)piperidin-1-yl]ethyl}-N-methylacetamide]", "values": [{"measurement": "pIC50", "setting": "[4]", "result": "≥ 4.40"}, {"measurement": "intraocular pressure reducing action", "setting": "intraocular pressure", "result": "significant intraocular pressure reducing action"}, {"measurement": "pIC50", "setting": "neutrophils", "result": "≥ 4.40"}]}, {"smiles": "O=C1CCN1CCN1CCC(N2CCc3cncc4cccc2c34)CC1", "note": "[Example 60, 1-{2-[4-(2,3-dihydro-1,5-diazaphenalen-1-yl)piperidin-1-yl]ethyl}azetidin-2-one]", "values": [{"measurement": "pIC50", "setting": "[4]", "result": "≥ 4.40"}, {"measurement": "intraocular pressure reducing action", "setting": "intraocular pressure", "result": "significant intraocular pressure reducing action"}, {"measurement": "pIC50", "setting": "neutrophils", "result": "≥ 4.40"}]}, {"smiles": "c1ccc(CN[C@H]2CC[C@H](N3CCc4cncc5cccc3c45)CC2)cc1", "note": "[trans-benzyl-[4-(2,3-dihydro-1,5-diazaphenalen-1-yl)cyclohexyl]amine]", "values": [{"measurement": "pIC50", "setting": "[4]", "result": "≥ 4.40"}, {"measurement": "pIC50", "setting": "neutrophils", "result": "≥ 4.40"}]}]}
